Test results reported in ChEMBL document CHEMBL1132012, “Synthesis and sulfatase inhibitory activities of (E)- and (Z)-4-hydroxytamoxifen sulfamates” (Bioorg Med Chem Lett, 1999).
One block for each molecule: values may come before it.

Key:
Steryl-sulfatase = target: T1, Steryl-sulfatase (Rattus norvegicus, UniProt P15589); test: (§1) In vitro binding affinity against estrone sulfatase in rat liver microsomes; set-up: species or system Microsome
T1 sequence (P15589 whole entry): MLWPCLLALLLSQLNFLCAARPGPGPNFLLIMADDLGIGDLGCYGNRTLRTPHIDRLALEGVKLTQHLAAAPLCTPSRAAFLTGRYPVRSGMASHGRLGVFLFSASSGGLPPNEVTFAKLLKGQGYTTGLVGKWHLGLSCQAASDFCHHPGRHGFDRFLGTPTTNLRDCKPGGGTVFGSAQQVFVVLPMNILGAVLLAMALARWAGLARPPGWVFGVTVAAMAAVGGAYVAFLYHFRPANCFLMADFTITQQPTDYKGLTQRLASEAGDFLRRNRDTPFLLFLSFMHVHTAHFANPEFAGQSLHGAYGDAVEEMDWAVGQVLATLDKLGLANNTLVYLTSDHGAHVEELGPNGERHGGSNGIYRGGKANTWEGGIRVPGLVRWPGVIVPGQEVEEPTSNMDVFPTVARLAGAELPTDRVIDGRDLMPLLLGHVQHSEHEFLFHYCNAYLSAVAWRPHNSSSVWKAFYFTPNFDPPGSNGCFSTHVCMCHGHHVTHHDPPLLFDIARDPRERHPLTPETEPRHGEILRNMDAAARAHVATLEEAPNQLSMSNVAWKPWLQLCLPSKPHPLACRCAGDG

[1] = substrate: C[C@]12CC[C@@H]3c4ccc(OS(=O)(=O)O)cc4CC[C@H]3[C@@H]1CCC2=O; test: as §1; conditions: Microsome

Ki (Steryl-sulfatase): > 500 µM
Molecule: CC/C(=C(\c1ccc(OCCN(C)C)cc1)c1ccc(OS(N)(=O)=O)cc1)c1ccccc1

Ki (Steryl-sulfatase): 35.9 µM
Molecule: CC/C(=C(/c1ccc(OCCN(C)C)cc1)c1ccc(OS(N)(=O)=O)cc1)c1ccccc1

B1: Steryl-sulfatase (Rattus norvegicus), P15589 (protein)
chain: T1 sequence (P15589 whole entry)
Km [1]: 90.2 µM
